# From ChEMBL document CHEMBL3885881, “DrugMatrix”
# Species on record: Rattus norvegicus
# Assay: DrugMatrix - Regimen: Daily Repeat
# Format: toxicity, organism-based, Sprague-Dawley
# Set-up: regimen Daily Repeat, gender Male, age 6-8 weeks
# Settings: in vivo, po, route oral GAVAGE, […]; for ABSOLUTE BASOPHIL / ABSOLUTE EOSINOPHIL / ABSOLUTE LYMPHOCYTE / ABSOLUTE MONOCYTE / ABSOLUTE SEGMENTED NEUTROPHIL / BASOPHIL / EOSINOPHIL / ERYTHROCYTE COUNT / HEMATOCRIT / HEMOGLOBIN / LEUKOCYTE COUNT / LYMPHOCYTE / MEAN CORPUSCULAR HEMOGLOBIN / MEAN CORPUSCULAR HEMOGLOBIN CONCENTRATION / MEAN CORPUSCULAR VOLUME / MONOCYTE / NEUTROPHIL / NUCLEATED RED BLOOD CELLS / PLATELET COUNT: tissue Blood; for ALANINE AMINOTRANSFERASE / ALBUMIN / ALKALINE PHOSPHATASE / ASPARTATE AMINOTRANSFERASE / BLOOD UREA NITROGEN / CARBON DIOXIDE / CHLORIDE / CHOLESTEROL / CREATINE PHOSPHOKINASE / CREATININE / GLUCOSE / LACTATE DEHYDROGENASE / LIPASE / PHOSPHORUS / POTASSIUM / SODIUM / TOTAL BILIRUBIN / TOTAL PROTEIN / URIC ACID: tissue Plasma
# [1] = 50 mg/kg, 120 h, dose level Low, time 5 day
# [2] = 714 mg/kg, 72 h, dose level High, time 3 day
# [3] = 714 mg/kg, 120 h, dose level High, time 5 day
smiles,measurement,setting,value
COC(=O)Nc1nc2ccc(C(=O)c3ccccc3)cc2[nH]1 [MEBENDAZOLE],ABSOLUTE BASOPHIL,[1],0 CELLS/uL
same,ABSOLUTE EOSINOPHIL,[1],0 CELLS/uL
same,ABSOLUTE LYMPHOCYTE,[1],6435.67 CELLS/uL
same,ABSOLUTE MONOCYTE,[1],130 CELLS/uL
same,ABSOLUTE SEGMENTED NEUTROPHIL,[1],501 CELLS/uL
same,BASOPHIL,[1],0%
same,EOSINOPHIL,[1],0%
same,ERYTHROCYTE COUNT,[1],5.5 x10E6/uL
same,HEMATOCRIT,[1],34.07%
same,HEMOGLOBIN,[1],13.2 G/DL
same,LEUKOCYTE COUNT,[1],7.07 x10E3/uL
same,LYMPHOCYTE,[1],91.33%
same,MEAN CORPUSCULAR HEMOGLOBIN,[1],23.93 pg
same,MEAN CORPUSCULAR HEMOGLOBIN CONCENTRATION,[1],38.77 G/DL
same,MEAN CORPUSCULAR VOLUME,[1],61.9 fL
same,MONOCYTE,[1],1.67%
same,NEUTROPHIL,[1],7%
same,NUCLEATED RED BLOOD CELLS,[1],0 /100WBC
same,PLATELET COUNT,[1],727.67 x10E3/uL
same,ALANINE AMINOTRANSFERASE,[1],57.67 u/L
same,ALBUMIN,[1],4.23 G/DL
same,ALKALINE PHOSPHATASE,[1],399 u/L
same,ASPARTATE AMINOTRANSFERASE,[1],84.33 u/L
same,BLOOD UREA NITROGEN,[1],13 mg/dL
same,CARBON DIOXIDE,[1],30.67 mmol/L
same,CHLORIDE,[1],101.67 MEQ/L
same,CHOLESTEROL,[1],64.67 mg/dL
same,CREATINE PHOSPHOKINASE,[1],244 u/L
same,CREATININE,[1],0.17 mg/dL
same,GLUCOSE,[1],149 mg/dL
same,LACTATE DEHYDROGENASE,[1],129.33 u/L
same,LIPASE,[1],9.33 u/L
same,PHOSPHORUS,[1],9.77 mg/dL
same,POTASSIUM,[1],5.24 MEQ/L
same,SODIUM,[1],144.5 MEQ/L
same,TOTAL BILIRUBIN,[1],0.17 mg/dL
same,TOTAL PROTEIN,[1],6.13 G/DL
same,URIC ACID,[1],0.83 mg/dL
same,ABSOLUTE BASOPHIL,[2],0 CELLS/uL
same,ABSOLUTE EOSINOPHIL,[2],0 CELLS/uL
same,ABSOLUTE LYMPHOCYTE,[2],11722 CELLS/uL
same,ABSOLUTE MONOCYTE,[2],64.67 CELLS/uL
same,ABSOLUTE SEGMENTED NEUTROPHIL,[2],713.33 CELLS/uL
same,BASOPHIL,[2],0%
same,EOSINOPHIL,[2],0%
same,ERYTHROCYTE COUNT,[2],5.73 x10E6/uL
same,HEMATOCRIT,[2],36.47%
same,HEMOGLOBIN,[2],14.03 G/DL
same,LEUKOCYTE COUNT,[2],12.5 x10E3/uL
same,LYMPHOCYTE,[2],93%
same,MEAN CORPUSCULAR HEMOGLOBIN,[2],24.53 pg
same,MEAN CORPUSCULAR HEMOGLOBIN CONCENTRATION,[2],38.5 G/DL
same,MEAN CORPUSCULAR VOLUME,[2],63.63 fL
same,MONOCYTE,[2],0.67%
same,NEUTROPHIL,[2],6.33%
same,NUCLEATED RED BLOOD CELLS,[2],0 /100WBC
same,PLATELET COUNT,[2],1226.67 x10E3/uL
same,ALANINE AMINOTRANSFERASE,[2],73 u/L
same,ALBUMIN,[2],4.17 G/DL
same,ALKALINE PHOSPHATASE,[2],458.33 u/L
same,ASPARTATE AMINOTRANSFERASE,[2],86.67 u/L
same,BLOOD UREA NITROGEN,[2],12.33 mg/dL
same,CARBON DIOXIDE,[2],34.33 mmol/L
same,CHLORIDE,[2],99 MEQ/L
same,CHOLESTEROL,[2],68 mg/dL
same,CREATINE PHOSPHOKINASE,[2],464 u/L
same,CREATININE,[2],0.15 mg/dL
same,GLUCOSE,[2],137.67 mg/dL
same,LACTATE DEHYDROGENASE,[2],159.67 u/L
same,LIPASE,[2],10 u/L
same,PHOSPHORUS,[2],11.13 mg/dL
same,POTASSIUM,[2],6.13 MEQ/L
same,SODIUM,[2],144.4 MEQ/L
same,TOTAL BILIRUBIN,[2],0.2 mg/dL
same,TOTAL PROTEIN,[2],6.07 G/DL
same,URIC ACID,[2],0.6 mg/dL
same,ABSOLUTE BASOPHIL,[3],0 CELLS/uL
same,ABSOLUTE EOSINOPHIL,[3],0 CELLS/uL
same,ABSOLUTE LYMPHOCYTE,[3],8770.67 CELLS/uL
same,ABSOLUTE MONOCYTE,[3],141.33 CELLS/uL
same,ABSOLUTE SEGMENTED NEUTROPHIL,[3],488 CELLS/uL
same,BASOPHIL,[3],0%
same,EOSINOPHIL,[3],0%
same,ERYTHROCYTE COUNT,[3],5.57 x10E6/uL
same,HEMATOCRIT,[3],35.9%
same,HEMOGLOBIN,[3],13.67 G/DL
same,LEUKOCYTE COUNT,[3],9.4 x10E3/uL
same,LYMPHOCYTE,[3],93%
same,MEAN CORPUSCULAR HEMOGLOBIN,[3],24.57 pg
same,MEAN CORPUSCULAR HEMOGLOBIN CONCENTRATION,[3],38.1 G/DL
same,MEAN CORPUSCULAR VOLUME,[3],64.5 fL
same,MONOCYTE,[3],1.67%
same,NEUTROPHIL,[3],5.33%
same,NUCLEATED RED BLOOD CELLS,[3],0.33 /100WBC
same,PLATELET COUNT,[3],1199 x10E3/uL
same,ALANINE AMINOTRANSFERASE,[3],60.67 u/L
same,ALBUMIN,[3],4.1 G/DL
same,ALKALINE PHOSPHATASE,[3],481.33 u/L
same,ASPARTATE AMINOTRANSFERASE,[3],90.67 u/L
same,BLOOD UREA NITROGEN,[3],14 mg/dL
same,CARBON DIOXIDE,[3],32.67 mmol/L
same,CHLORIDE,[3],99.67 MEQ/L
same,CHOLESTEROL,[3],65 mg/dL
same,CREATINE PHOSPHOKINASE,[3],401 u/L
same,CREATININE,[3],0.21 mg/dL
same,GLUCOSE,[3],145.33 mg/dL
same,LACTATE DEHYDROGENASE,[3],142.67 u/L
same,LIPASE,[3],11.67 u/L
same,PHOSPHORUS,[3],10.2 mg/dL
same,POTASSIUM,[3],5.58 MEQ/L
same,SODIUM,[3],146.1 MEQ/L
same,TOTAL BILIRUBIN,[3],0.2 mg/dL
same,TOTAL PROTEIN,[3],5.97 G/DL
same,URIC ACID,[3],0.5 mg/dL
